In one data set the target is T1, α2-KD (Homo sapiens, UniProt P54646).
T1 construct: amplifying residues 1-310 with 5' BamH1 and 3' Xho1 sites; made in house; host or cells: bacteria
Put plainly: Activation and phosphorylation of unphosphorylated α2-KD (WT) by LKB1. The format is biochemical. An excerpt:
(B) Effect of ATP concentration on kinase activity of α2-KD in the presence of increasing concentrations of SU6656. Results (mean, n = 2) were fitted to the equation Y= (Vmax × X)/(Km × (1 + I/Ki) + X), where Y is the activity, X is the ATP concentration, I is the concentration of SU6656, and Ki is the inhibitory constant for SU6656. […] (D and E) Effect of increasing concentrations of SU6656 on activity (D) and Thr172 phosphorylation (E) induced by LKB1 with unphosphorylated α2-KD (WT/AT mutant). Results in (D) are mean ± SEM (n = 3); and were fitted to same equation as Figure 4C. […] See also Figure S3. (F) Effect of AMP (2 mM) and SU6656 on inactivation of AMPK by PP2Cα in the presence of 5 mM ATP. […] (G) Effects of AMP or SU6656 on activation (top) and Thr172 phosphorylation (bottom) by LKB1 of AMPK-γ1 complexes expressed in HeLa cells. FLAG-tagged AMPK-γ1, either wild-type (WT) or R299G mutant (RG), was expressed in HeLa cells and AMPK complexes precipitated using anti-FLAG antibody. The complexes (which have low basal phosphorylation due to lack of LKB1 in HeLa cells) were incubated with or without a limiting amount of LKB1, AMP (200 μM) or SU6656 (3 μM) for 10 min and AMPK activity determined.
We next used unphosphorylated α2-KD and tested the effect of SU6656 on its activation and phosphorylation by LKB1.

The subject of the next data set is Erk1/Erk2. Put plainly: Erk1/Erk2 phosphorylation in HEK293 cells (western blot). The following applies: SU6656 100 μM, PP2 100 nM. The format is cell-based, human. For orientation: A western blot detects proteins with antibodies after separation by electrophoresis.
The test system of a further data set is AMPK. The data set is classed as cell-based, mouse. The following applies: SYF cells, 1 hr. The method, then:
We next tested the effect of SU6656 in SYF cells, which are mouse embryo fibroblasts (MEFs) with null alleles for Src, Yes, and Fyn, the three Src kinases expressed in MEFs ([Klinghoffer et al., 1999]).
Top: AMPK activity (mean ± SEM, n = 4); bottom: western blots showing phosphorylation of Thr172 on AMPK, and of ERK1/2, in cells treated with DMSO (control), SU6656 (100 μM), or PP2 (100 nM) (n = 2). (B) As (A), but in SYF cells. (C) HeLa cells were transfected with DNAs encoding GFP alone, or GFP fused to WT, Y261F/Y365F (FF), or Y36F/Y261F/Y365F (FFF) mutants of LKB1; cells were treated with increasing concentrations of SU6656 for 1 hr and AMPK activity determined (mean ± SEM, n = 4). See also Figure S1. (D) HEK293 cells were transfected with DNAs encoding FLAG-tagged AMPK-α2 with or without a Y436F mutation. Cells were incubated with DMSO (control), 100 μM SU6656, 10 mM phenformin, or 10 μM A23187 for 1 hr; AMPK complexes were immunoprecipitated using anti-FLAG antibody and assayed. The top panels show kinase activities (mean ± SD, n = 3); the bottom panels show blots from the same experiment (n = 2). In all panels, asterisks indicate significant differences from DMSO controls; in (D), there were no significant differences between the WT and Y463F mutant. **p < 0.01, ****p < 0.0001. […]

The target in data set [1] is α2 kinase domain (α2-KD, residues 1–310) (Homo sapiens, UniProt P54646). Put plainly: biochemical.
On the set-up of data set [2]: method as in Strumberg et al., 2007. The following applies: human clinical trials; ref Strumberg et al., 2007; cited from earlier work.
Another data set has as its system Raptor. The data set is described as follows: Raptor phosphorylation in HEK293 cells (western blot). The data set is classed as cell-based, human. Conditions: 1 hr. Here is the method: Figure 1 SU6656 Activates AMPK but Not AMPK-Related Kinases (A) HEK293 cells were incubated with the indicated concentrations of SU6656 or berberine (300 μM) for 1 hr; total AMPK activity was assayed in immunoprecipitates (top; mean ± SEM, n = 4), and phosphorylation of AMPK (Thr172), ACC (Ser80), and Raptor (Ser792) analyzed by western blotting (bottom; n = 2). (B) HEK293 cells were incubated with 100 μM SU6656 (1 hr), AMPK complexes containing α1, α2, β1, and β2 immunoprecipitated using isoform-specific antibodies, and AMPK activity measured (mean ± SEM, n = 4). (C) HeLa cells stably expressing LKB1 ([Fogarty et al., 2010]) were incubated with 100 μM SU6656 for 1 hr, AMPK or individual ARKs immunoprecipitated, and kinase assays carried out (antibodies that distinguish MARK2/MARK3 were not available, so they were assayed together). Results are means ± SEM (n = 2). In all panels, asterisks indicate significant differences from controls without SU6656. *p < 0.05, **p < 0.01, ****p < 0.0001.
SDS-PAGE was performed using precast Bis-Tris 4–12% gradient polyacrylamide gels in the MOPS buffer system (ThermoFisher Scientific). Proteins were transferred to nitrocellulose membranes using the iBlot 2 system (ThermoFisher Scientific). […] Protein concentrations were determined by Coomassie Blue binding with bovine serum albumin as standard ([Bradford, 1976]). […]

This is an account of results in article PMC5522529, “Mechanisms of Paradoxical Activation of AMPK by the Kinase Inhibitors SU6656 and Sorafenib” (Cell Chemical Biology, 2017).

T1 sequence (P54646 1-310): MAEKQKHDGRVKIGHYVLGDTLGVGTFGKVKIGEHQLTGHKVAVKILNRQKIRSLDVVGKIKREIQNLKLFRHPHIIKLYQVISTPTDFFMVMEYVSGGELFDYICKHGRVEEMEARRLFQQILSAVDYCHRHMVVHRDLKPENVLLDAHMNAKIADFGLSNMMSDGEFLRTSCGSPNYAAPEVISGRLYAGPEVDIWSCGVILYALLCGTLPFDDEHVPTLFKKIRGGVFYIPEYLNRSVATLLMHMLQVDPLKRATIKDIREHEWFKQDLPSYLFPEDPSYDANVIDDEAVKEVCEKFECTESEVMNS
α2 kinase domain (α2-KD, residues 1–310), sequence (P54646 1-310): as above

In the case of `CN(C)S(=O)(=O)c1ccc2c(c1)/C(=C/c1cc3c([nH]1)CCCC3)C(=O)N2` [SU6656], the “activation of α2-KD by LKB1” value on α2-KD (SU6656 up to 10 μM) amounted to 1.9 ± 0.2 fold. The Kd (as a rule, the equilibrium constant for the complex coming apart) on α2-KD (read-out: half-maximal effect on α2-KD activation by LKB1) was determined as 200 ± 20 nM. For the same compound, the Erk1/Erk2 phosphorylation result with Erk1/Erk2 is given as “reduced phosphorylation of Erk1/Erk2”. Further, the “AMPK activity / Thr172 phosphorylation” value with AMPK was “still activated and increased Thr172 phosphorylation of AMPK”. Besides, in data set [1], inhibition was half-maximal at 220 ± 20 nM (IC50) and the affinity corresponds to a Ki of 170 nM.

For `CNC(=O)c1cc(Oc2ccc(NC(=O)Nc3ccc(Cl)c(C(F)(F)F)c3)cc2)ccn1` [sorafenib], in data set [2], the peak plasma sorafenib is 6 to 20 µM.

On to `COc1ccc2cc3[n+](cc2c1OC)CCc1cc2c(cc1-3)OCO2` [berberine], for which the Raptor phosphorylation result with Raptor is given as “did promote Raptor phosphorylation”.
